We go through 25 compounds from patent US8263606B2 (Xenon Pharmaceuticals Inc., priority 2008, dated 2012).

Molecules are shown by their SMILES.

The target in one data set is CYP3A4 (Homo sapiens, UniProt P08684). Briefly: Cytochrome P450 (CYP450) Inhibition Assay, CYP3A4 (Vivid fluorescence, BOMCC substrate). The note with it: human, P450 Baculosomes (recombinant CYP3A4), probe BOMCC (Vivid substrate).
Another data set relates to sodium channel. In words: Guanidine influx assay (14C-guanidine radiotracer flux, in vitro). The format is cell-based, human or rat. The note with it: guanidine influx assay using a known cell line that expresses a sodium channel. Summed up:
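Aconitine holds channels open while 14C-guanidine enters human or rat sodium-channel-expressing cells in choline-substituted low-sodium saline, with test agent present at ambient temperature. Retained tracer is scintillation-counted and IC50 fitted by a four-parameter logistic model.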

CYP3A4, sequence (P08684 whole entry): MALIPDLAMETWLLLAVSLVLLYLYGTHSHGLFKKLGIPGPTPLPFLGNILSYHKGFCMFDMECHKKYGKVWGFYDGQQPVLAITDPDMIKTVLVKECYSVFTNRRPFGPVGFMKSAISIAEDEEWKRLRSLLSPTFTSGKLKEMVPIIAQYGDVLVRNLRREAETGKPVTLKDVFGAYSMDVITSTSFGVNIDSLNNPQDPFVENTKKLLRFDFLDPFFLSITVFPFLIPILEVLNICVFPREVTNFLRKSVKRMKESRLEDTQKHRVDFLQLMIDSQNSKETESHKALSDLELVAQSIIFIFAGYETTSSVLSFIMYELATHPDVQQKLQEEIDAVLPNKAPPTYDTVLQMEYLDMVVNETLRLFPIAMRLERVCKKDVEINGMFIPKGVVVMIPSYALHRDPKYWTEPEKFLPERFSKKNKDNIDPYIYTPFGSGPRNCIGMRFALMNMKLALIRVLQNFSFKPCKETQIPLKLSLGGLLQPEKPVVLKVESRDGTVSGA

In general, inhibition refers to the percentage by which the read-out fell short of the control. Broadly, the melting point is the temperature, or range, at which the solid turns liquid. In general, IC50 refers to the point on the concentration scale where inhibition reaches its midpoint. As to `O=C1N(Cc2cnc(N3CCOCC3)s2)c2ccccc2C12COc1cc3c(cc12)OCO3` (stereo not drawn) [Example 11.2, 1′-[(2-morpholin-4-yl-1,3-thiazol-5-yl)methyl]spiro[furo[2,3-f][1,3]benzodioxole-7,3′-indol]-2′(1′H)-one], the melting point is 97 to 99 °C. In addition, the inhibition at 10 µM at CYP3A4 is greater than 50%. Also, the IC50 in the data set with sodium channel fell in the range of 100 to 1000 nM.
Taken in the same sequence, the figures for `O=C1N(Cc2cnc(N3CCCCC3)s2)c2ccccc2C12COc1cc3c(cc12)OCO3` (stereo not drawn) [Example 11.3, 1′-[(2-piperidin-1-yl-1,3-thiazol-5-yl)methyl]spiro[furo[2,3-f][1,3]benzodioxole-7,3′-indol]-2′(1′H)-one] were 195 to 197 °C, greater than 50% and 100 to 1000 nM.
In turn, `COc1ncc(CN2C(=O)C3(COc4cc5c(cc43)OCO5)c3ccccc32)s1` (stereo not drawn) [Example 11.4, 1′-[(2-methoxy-1,3-thiazol-5-yl)methyl]spiro[furo[2,3-f][1,3]benzodioxole-7,3′-indol]-2′(1′H)-one] displayed a melting point of 164 to 166 °C. The inhibition at 10 µM at CYP3A4 was greater than 50%. Moreover, the IC50 with sodium channel is 1 to 100 nM.
Turning to `CN1CCC(CN2C(=O)C3(COc4cc5c(cc43)CCO5)c3ccccc32)CC1` (stereo not drawn) [Example 11.10, 1′-[(1-methylpiperidin-4-yl)methyl]-5,6-dihydrospiro[benzo[1,2-b:5,4-b′]difuran-3,3′-indol]-2′(1′H)-one], the melting point lay in the range of 155 to 158 °C. Besides, the inhibition at 10 µM on CYP3A4 was greater than 50%. Moreover, in the data set on sodium channel, the IC50 was no less than 10000 nM.
Turning to `O=C(O)c1cccc(CN2C(=O)C3(COc4cc5c(cc43)CCO5)c3ccccc32)c1` (stereo not drawn) [Example 11.12, 3-[(2′-oxo-5,6-dihydrospiro[benzo[1,2-b:5,4-b′]difuran-3,3′-indol]-1′(2′H)-yl)methyl]benzoic acid], the melting point was greater than 250 °C. For the same compound, the inhibition at 10 µM on CYP3A4 is less than 50%. Further, the IC50 with sodium channel is 1000 to 10000 nM.
Taken in the same sequence, the figures for `O=C1N(Cc2ccc(-c3noc(C(F)(F)F)n3)cc2)c2ccccc2C12COc1cc3c(cc12)CCO3` (stereo not drawn) [Example 11.13, 1′-{4-[5-(trifluoromethyl)-1,2,4-oxadiazol-3-yl]benzyl}-5,6-dihydrospiro[benzo[1,2-b:5,4-b′]difuran-3,3′-indol]-2′(1′H)-one] were 178 to 179 °C, less than 50% and 100 to 1000 nM.
The compound `O=C1N(CCc2noc(C(F)(F)F)n2)c2ccccc2C12COc1cc3c(cc12)OCO3` (stereo not drawn) [Example 11.18, 1′-{2-[5-(trifluoromethyl)-1,2,4-oxadiazol-3-yl]ethyl}spiro[furo[2,3-f][1,3]benzodioxole-7,3′-indol]-2′(1′H)-one] yielded a melting point of 45 to 48 °C. Further, the inhibition at 10 µM at CYP3A4 is greater than 50%. In the data set with sodium channel, the IC50 was in the range of 1 to 100 nM.
With `O=C1N(Cc2noc(C(F)(F)F)n2)c2cccc(Cl)c2C12COc1cc3c(cc12)OCO3` (stereo not drawn) [Example 11.19, 4′-chloro-1′-{[5-(trifluoromethyl)-1,2,4-oxadiazol-3-yl]methyl}spiro[furo[2,3-f][1,3]benzodioxole-7,3′-indol]-2′(1′H)-one], the melting point lay within 138 to 140 °C. On CYP3A4, the inhibition at 10 µM is greater than 50%. For the same compound, the IC50 in the data set on sodium channel fell in the range of 1 to 100 nM.
For `O=C1N(Cc2noc(C3CC3)n2)c2cccc(Cl)c2C12COc1cc3c(cc12)OCO3` (stereo not drawn) [Example 11.20, 4′-chloro-1′-[(5-cyclopropyl-1,2,4-oxadiazol-3-yl)methyl]spiro[furo[2,3-f][1,3]benzodioxole-7,3′-indol]-2′(1′H)-one], the melting point fell in the range of 180 to 182 °C. Moreover, at CYP3A4, the inhibition at 10 µM is greater than 50%. For the same compound, the 50% inhibitory concentration (IC50) in the data set with sodium channel was 1 to 100 nM.
On the same counts, the results for `O=C1N(Cc2noc(C(F)F)n2)c2cccc(Cl)c2C12COc1cc3c(cc12)OCO3` (stereo not drawn) [Example 11.21] are 179 to 182 °C, greater than 50% and 1 to 100 nM.
Compound `O=C1N(Cc2noc(C(F)F)n2)c2ccccc2C12COc1cc3c(cc12)OCO3` (stereo not drawn) [Example 11.22, 1-{[5-(difluoromethyl)-1,2,4-oxadiazol-3-yl]methyl}spiro[furo[2,3-f][1,3]benzodioxole-7,3′-indol]-2′(1′H)-one] yielded a melting point of 137 to 139 °C. At CYP3A4, the inhibition at 10 µM is greater than 50%. The half-maximal inhibitory concentration (IC50) with sodium channel lay within 1 to 100 nM.
For the compound `CC(C)(C)c1nc(CN2C(=O)C3(COc4cc5c(cc43)OCO5)c3ccccc32)no1` (stereo not drawn) [Example 11.23, 1′-[(5-tert-butyl-1,2,4-oxadiazol-3-yl)methyl]spiro[furo[2,3-f][1,3]benzodioxole-7,3′-indol]-2′(1′H)-one], the melting point lay within 183 to 185 °C. For the same compound, on CYP3A4, the inhibition at 10 µM was greater than 50%. Besides, in the data set on sodium channel, the IC50 lay in the range of 1 to 100 nM.
On the same counts, the results for `O=C1N(Cc2noc(C3CC3)n2)c2ccccc2C12COc1cc3c(cc12)OCO3` (stereo not drawn) [Example 11.24, 1′-[(5-cyclopropyl-1,2,4-oxadiazol-3-yl)methyl]spiro[furo[2,3-f][1,3]benzodioxole-7,3′-indol]-2′(1′H)-one] are 136 to 137 °C, greater than 50% and 1 to 100 nM.
`CC(C)c1nc(CN2C(=O)C3(COc4cc5c(cc43)OCO5)c3c(Cl)cccc32)no1` (stereo not drawn) [Example 11.25, 4′-chloro-1′-{[5-(1-methylethyl)-1,2,4-oxadiazol-3-yl]methyl}spiro[furo[2,3-f][1,3]benzodioxole-7,3′-indol]-2′(1′H)-one] gave a melting point of 165 to 167 °C. Further, the inhibition at 10 µM on CYP3A4 is greater than 50%. Moreover, in the data set on sodium channel, the IC50 was 1 to 100 nM.
On the same counts, the results for `CC(C)c1nc(CN2C(=O)C3(COc4cc5c(cc43)OCO5)c3ccccc32)no1` (stereo not drawn) [Example 11.26, 1′-{[5-(1-methylethyl)-1,2,4-oxadiazol-3-yl]methyl}spiro[furo[2,3-f][1,3]benzodioxole-7,3′-indol]-2′(1′H)-one] are 196 to 199 °C, greater than 50% and 1 to 100 nM.
As for `O=C1N(Cc2cccc(-c3noc(C(F)(F)F)n3)c2)c2ccccc2C12COc1cc3c(cc12)CCO3` (stereo not drawn) [Example 11.28, 1′-{3-[5-(trifluoromethyl)-1,2,4-oxadiazol-3-yl]benzyl}-5,6-dihydrospiro[benzo[1,2-b:5,4-b′]difuran-3,3′-indol]-2′(1′H)-one], the melting point is 182 to 188 °C. For the same compound, the inhibition at 10 µM on CYP3A4 is greater than 50%. In the data set with sodium channel, the IC50 was in the range of 100 to 1000 nM.
Taken in the same sequence, the figures for `Cc1nnc(-c2ccc(CN3C(=O)C4(COc5cc6c(cc54)CCO6)c4ccccc43)cc2)[nH]1` (stereo not drawn) [Example 11.29, 1′-[4(5-methyl-4H-1,2,4-triazol-3-yl)benzyl]-5,6-dihydrospiro[benzo[1,2-b:5,4-b′]difuran-3,3′-indol]-2′(1′H)-one] were 169 to 180 °C, greater than 50% and 100 to 1000 nM.
On to `O=C1N(CCCO)c2ccccc2C12COc1cc3c(cc12)CCO3` (stereo not drawn) [Example 11.34, 1′-(3-hydroxypropyl)-5,6-dihydrospiro[benzo[1,2-b:5,4-b′]difuran-3,3′-indol]-2′(1′H)-one], for which the melting point was in the range of 54 to 56 °C. Moreover, the inhibition at 10 µM on CYP3A4 is less than 50%. Further, the half-inhibitory concentration (IC50) in the data set with sodium channel was in the range of 100 to 1000 nM.
On the same counts, the results for `Nc1cccc2c1C1(COc3cc4c(cc31)CCO4)C(=O)N2C[C@H]1CCCO1` (stereo partly drawn) [Example 11.39, 4′-amino-1′-[(2R)-tetrahydrofuran-2-ylmethyl]-5,6-dihydrospiro[benzo[1,2-b:5,4-b′]difuran-3,3′-indol]-2′(1′H)-one] are 190 to 192 °C, greater than 50% and 100 to 1000 nM.
Taken in the same sequence, the figures for `CN1C(=O)C2(COc3cc4c(cc32)CCO4)c2ccccc21` (stereo not drawn) [Example 11.43, 1′-methyl-5,6-dihydrospiro[benzo[1,2-b:5,4-b′]difuran-3,3′-indol]-2′(1′H)-one] were 187 to 190 °C, less than 50% and 100 to 1000 nM.
On the same counts, the results for `O=C1N(Cc2cccc(O)c2)c2ccccc2C12COc1cc3c(cc12)CCO3` (stereo not drawn) [Example 11.45, 1′-(3-hydroxybenzyl)-5,6-dihydrospiro[benzo[1,2-b:5,4-b′]difuran-3,3′-indol]-2′(1′H)-one] are 225 to 227 °C, greater than 50% and 100 to 1000 nM.
The compound `Nc1ccc2c(c1)OCC21C(=O)N(C[C@H]2CCCO2)c2ccccc21` (stereo partly drawn) [Example 11.47, 6-amino-1′-[(2R)-tetrahydrofuran-2-ylmethyl]spiro[1-benzofuran-3,3′-indol]-2′(1′H)-one] yielded a melting point of 71 to 74 °C. In addition, the inhibition at 10 µM at CYP3A4 is greater than 50%. The IC50 in the data set on sodium channel was 1000 to 10000 nM.
The compound `CC(C)CCN1C(=O)C2(COc3cc(O)ccc32)c2ccccc21` (stereo not drawn) [Example 11.49, 6-hydroxy-1′-(3-methylbutyl)spiro[1-benzofuran-3,3′-indol]-2′(1′H)-one] gave a melting point of 101 to 103 °C. The inhibition at 10 µM on CYP3A4 was greater than 50%. The IC50 in the data set on sodium channel lay in the range of 1 to 100 nM.
As to `CC(C)CCN1C(=O)C2(COc3cc(O)c(C(=O)C(F)(F)F)cc32)c2ccccc21` (stereo not drawn) [Example 11.50, 6-hydroxy-1′-(3-methylbutyl)-5-(trifluoroacetyl)spiro[1-benzofuran-3,3′-indol]-2′(1′H)-one], the melting point fell in the range of 87 to 88 °C. Moreover, at CYP3A4, the inhibition at 10 µM was greater than 50%. Moreover, in the data set with sodium channel, the IC50 was in the range of 1000 to 10000 nM.
For `O=C1N(Cc2ccc(C(F)(F)F)o2)c2ccccc2C12COc1cc(N[C@@H]3CCNC3)ccc12` (stereo partly drawn) [Example 11.52, 6-[(3R)-pyrrolidin-3-ylamino]-1′-{[5-(trifluoromethyl)furan-2-yl]methyl}spiro[1-benzofuran-3,3′-indol]-2′(1′H)-one], the melting point fell in the range of 122 to 125 °C. For the same compound, the inhibition at 10 µM on CYP3A4 was greater than 50%. The IC50 in the data set with sodium channel was in the range of 100 to 1000 nM.
